In brackets after ≈: the same amount, converted by molar mass.
Assays:
Format in all cases: functional
Staphylococcus aureus = assay: Antibacterial activity against Staphylococcus aureus NCIM 5022 after 24 hr by agar well diffusion method; settings: NCIM 5022, 24 h
Salmonella typhi = assay: Antibacterial activity against Salmonella enterica subsp. enterica serovar Typhi ATCC 19430 after 24 hr by agar well diffusion method; settings: ATCC 19430, 24 h
Proteus vulgaris = assay: Antibacterial activity against Proteus vulgaris NCIM 2857 after 24 hr by agar well diffusion method; settings: NCIM 2857, 24 h
Pseudomonas aeruginosa = assay: Antibacterial activity against Pseudomonas aeruginosa NCIM 2945 after 24 hr by agar well diffusion method; settings: NCIM 2945, 24 h
Escherichia coli = assay: Antibacterial activity against Escherichia coli NCIM 5051 after 24 hr by agar well diffusion method; settings: NCIM 5051, 24 h
Bacillus subtilis = assay: Antibacterial activity against Bacillus subtilis NCIM 2920 after 24 hr by agar well diffusion method; settings: NCIM 2920, 24 h

With Sc1nc2cc(Cl)cc(Cl)c2o1 the MIC (Staphylococcus aureus) was 25 µg/mL (≈ 114 µM), the MIC (Salmonella typhi) was 50 µg/mL (≈ 227 µM) and the MIC (Proteus vulgaris) was 3.12 µg/mL (≈ 14.2 µM). The MIC (Pseudomonas aeruginosa) was 3.12 µg/mL (≈ 14.2 µM), the MIC (Escherichia coli) was 3.12 µg/mL (≈ 14.2 µM) and the MIC (Bacillus subtilis) was 6.25 µg/mL (≈ 28.4 µM).
For CCOC(=O)CSc1nc2cc(Cl)cc(Cl)c2o1, the MIC (Staphylococcus aureus) was 25 µg/mL (≈ 81.7 µM), the MIC (Proteus vulgaris) was 6.25 µg/mL (≈ 20.4 µM) and the MIC (Pseudomonas aeruginosa) was 3.12 µg/mL (≈ 10.2 µM). For the same molecule, the MIC (Escherichia coli) was 6.25 µg/mL (≈ 20.4 µM) and the MIC (Bacillus subtilis) was 3.12 µg/mL (≈ 10.2 µM).
Work on NNc1nc2cc(Cl)cc(Cl)c2o1 yielded an MIC (Staphylococcus aureus) of 6.25 µg/mL (≈ 28.7 µM), an MIC (Proteus vulgaris) of 3.12 µg/mL (≈ 14.3 µM) and an MIC (Escherichia coli) of 50 µg/mL (≈ 229 µM). The MIC (Bacillus subtilis) was 6.25 µg/mL (≈ 28.7 µM).
Work on S=c1[nH]nc2oc3c(Cl)cc(Cl)cc3n12 yielded an MIC (Staphylococcus aureus) of 3.12 µg/mL (≈ 12 µM), an MIC (Salmonella typhi) of 50 µg/mL (≈ 192 µM) and an MIC (Proteus vulgaris) of 6.25 µg/mL (≈ 24 µM). It also gave an MIC (Pseudomonas aeruginosa) of 3.12 µg/mL (≈ 12 µM), an MIC (Escherichia coli) of 3.12 µg/mL (≈ 12 µM) and an MIC (Bacillus subtilis) of 3.12 µg/mL (≈ 12 µM).
CCOC(=O)CSc1nnc2oc3c(Cl)cc(Cl)cc3n12 was tested, and the MIC (Staphylococcus aureus) was 6.25 µg/mL (≈ 18.1 µM), the MIC (Salmonella typhi) was 50 µg/mL (≈ 144 µM) and the MIC (Proteus vulgaris) was 3.12 µg/mL (≈ 9.03 µM). It also gave an MIC (Pseudomonas aeruginosa) of 3.12 µg/mL (≈ 9.03 µM), an MIC (Escherichia coli) of 3.12 µg/mL (≈ 9.03 µM) and an MIC (Bacillus subtilis) of 3.12 µg/mL (≈ 9.03 µM).
O=[N+]([O-])c1ccc(NCn2nc3oc4c(Cl)cc(Cl)cc4n3c2=S)cc1 showed an MIC (Staphylococcus aureus) of 3.12 µg/mL (≈ 7.62 µM), an MIC (Proteus vulgaris) of 6.25 µg/mL (≈ 15.2 µM) and an MIC (Pseudomonas aeruginosa) of 3.12 µg/mL (≈ 7.62 µM). It also gave an MIC (Bacillus subtilis) of 6.25 µg/mL (≈ 15.2 µM).
For O=C(O)c1cn(C2CC2)c2cc(N3CCNCC3)c(F)cc2c1=O [CIPROFLOXACIN], the MIC (Staphylococcus aureus) was 3.12 µg/mL (≈ 9.43 µM), the MIC (Salmonella typhi) was 6.25 µg/mL (≈ 18.9 µM) and the MIC (Proteus vulgaris) was 3.12 µg/mL (≈ 9.43 µM). For the same molecule, the MIC (Pseudomonas aeruginosa) was 3.12 µg/mL (≈ 9.43 µM), the MIC (Escherichia coli) was 3.12 µg/mL (≈ 9.43 µM) and the MIC (Bacillus subtilis) was 3.12 µg/mL (≈ 9.43 µM).

Source: ChEMBL document CHEMBL3046598, “In vitro antimicrobial and molecular docking of dichloro substituted benzoxazole derivatives” (2012)
